From patent US6306857A, “Methods for treating or preventing alzheimer's disease using substituted 1-aryl-3-piperazin-1'-yl propanones” (Molecular Geriatrics Corporation, priority 1999, dated 2001) come the findings set out here.

Where a name gives a salt, the structure may show the parent alone.

For the first assay, the system named is microtubule cytoskeleton of cultured human CG neuroblastoma cells. The experiment in a line: Antimicrotubule activity (tubulin immunofluorescence microscopy). Type of assay: cell-based. The conditions noted are these: Neuroblastoma cell, 2 h, read-out: Concentration where microtubule destabilization occurs. On the procedure: The compounds of the invention according to formula I are effective in destabilizing microtubules, thus are useful in treating certain neoplastic diseases. Indirect immunofluorescence microscopy using the monoclonal antibodies to tubulin is used herein to determine the activity of the compounds of this invention in promoting depolymerization of the microtubule cytoskeleton in cultured cells. The following assay was employed.
Cultured human CG neuroblastoma cells were seeded 1:3 from confluent cultures onto sterile 11×22 mm coverslips in 6 well tissue culture plates 16 hr prior to treatment. The following day, the tissue culture medium is removed and the cells are exposed to various concentrations of compounds of this invention in Krebs Ringer Hepes (KRH) buffer containing a final concentration of 0.5% DMSO as carrier. Incubations were performed at 37° C. in a humidified 5% CO2 atmosphere for 2 hr. After incubation, the cells were fixed in 3% TEM grade formaldehyde in PBS for 45 min at room temperature.
To visualize the effects of the compounds of the invention on the microtubule cytoskeleton, the cells were processed for tubulin immunofluorescence. Briefly, the cells were permeabilized in 0.5% Triton-X 100 in PBS for 5 min. The cells were washed 2× with PBS and aldehydes reduced using 0.5 mg/ml NaBH4 in PBS for 5 min. Subsequently, the cells were blocked for 10 min in 1.5% BSA and 1.5% nonfat dry milk in PBS (blocking solution, BS) for 10 min. The cells were then incubated for 30 min at 37° C. with the monoclonal antibody Tu27B which recognizes b-tubulin (dilution 1:20 in BS). Subsequently, the cells were washed 2× in PBS and once in BS. The cells were then incubated for 30 min at 37° C. with sheep antimouse IgG conjugated to FITC. After incubation, the cells were washed 2× in PBS and once in BS and incubated. for 30 min at 37° C. with rabbit antisheep IgG conjugated to FITC. The cells were rinsed in PBS, counterstained with Hoechst 33285 in PBS (1 μg/ml), and rinsed in PBS. The coverslips were mounted in 9:1 glycerol:PBS containing 1 mg/ml p-phenylenediamine and sealed with nail polish.
The cells were viewed using a Jenalumar epifluorescence microscope equipped with the proper filters for Fluorescein Isothiocyanate (FITC) excitation and emission. Lack of effect of a compound is evidenced by the presence of an intact microtubule network in interphase cells, or a mitotic spindle dividing cells. Antineoplastic compounds of the invention at effective doses result in the disapperance of microtubules in both interphase and mitotic cells.
As to `O=C(CCN1CCN(Cc2ccccc2)CC1)c1ccc(Nc2ccc([N+](=O)[O-])cc2[N+](=O)[O-])cc1` [Example 113, 1-(4"-[2'",4'"-Dinitrophenylamino]phenyl)-3-(4'-benzyl-1'-piperazinyl)-1-propanone dihydrochloride], the minimal effective concentration came to 20 µM.

Staying with this assay, now noted: Neuroblastoma cell, 2 hr at 37° C., 0.5% DMSO in KRH, read-out: Concentration where microtubule destabilization occurs.
`O=C(CCN1CCN(Cc2ccccc2)CC1)c1cccs1` [Example 7, 1-(2"-Thienyl)-3-(4'-benzyl-1'-piperazinyl)-1-propanone dihydrochloride]: the minimal effective concentration stood at 20 µM.
Still for that read-out and setting: to `O=C(CCN1CCN(Cc2ccccc2)CC1)c1ccc(C2CCCCC2)cc1` [Example 27, 1-(p-Cyclohexylphenyl)-3-(4'-benzyl-1'-piperazinyl)-1-propanone dihydrochloride] belongs 20 µM; to `O=C(CCN1CCN(Cc2cc(F)ccc2F)CC1)c1ccsc1` [Example 38, 1-(3"-Thienyl)-3-[4'-(2'",5'"-difluorobenzyl)-1'-piperazinyl]-1-propanone dihydrochloride], 20 µM; to `O=C(CCN1CCN(C(=O)c2c(F)cccc2F)CC1)c1ccccc1F` [Example 41, 1-(o-Fluorophenyl)-3-[4'-(2",6"-difluorobenzoyl)-1'-piperazinyl]-1-propanone hydrochloride], 20 µM.
The same measure, in the same setting: to `N#Cc1cccc(C(=O)CCN2CCN(Cc3ccccc3)CC2)c1` [Example 60, 1-(m-Cyanophenyl)-3-(4'-benzyl-1'-piperazinyl)-1-propanone dihydrochloride] belongs 20 µM; to `N#Cc1ccc(C(=O)CCN2CCN(Cc3ccccc3)CC2)s1` [Example 85, 1-(5"-Cyano-2"-thienyl)-3-(4'-benzyl-1'-piperazinyl)-1-propanone dihydrochloride], 20 µM.
As for `O=C(CCN1CCN(Cc2ccccc2)CC1)c1cc([N+](=O)[O-])c(Cl)s1` [Example 95, 1-(5"-Chloro-4"-nitro-2"-thienyl)-3-(4'-benzyl-1'-piperazinyl)-1-propanone dihydrochloride], the minimal effective concentration came out at 20 µM.
Regarding `O=C(CCN1CCN(Cc2ccccc2)CC1)c1conc1-c1ccccc1` [Example 112, 1-(3"-Phenylisoxazol-4"-yl)-3-(4'-benzyl-1'-piperazinyl)-1-propanone dihydrochloride], the minimal effective concentration was 20 µM.
